Earlier results on 1 compound are cited in patent US20110046204A1, “Human Zip1, Zinc and Citrate for Prostate Cancer Screening” (University of Maryland, Balitmore, priority 2006, published 2011).

A word on the Kd: it is a measure of binding affinity in units of concentration.

For this series the following is noted: zinc-indicator dye TSQ; read-out: affinity for zinc (Kd).

Turning to `COc1cc(NS(=O)(=O)c2ccc(C)cc2)c2ncccc2c1` [TSQ], the dissociation constant (Kd) is approximately 10 nM.
